This is an account of results in patent US5795912A, “Therapeutic composition for corneal impairment” (Senju Pharmaceutical, Co., Ltd., priority 1997, dated 1998).

The structures appear in SMILES notation.

Data set [1] concerns rats. The data set can be described thus: LD50, p.o. (rats). It is filed as in vivo.
The test system of data set [2] is rats. In words: LD50, i.v. (rats). It counts as in vivo.
The subject of data set [3] is UV-induced corneal lesion. In words: Inhibitory effect on UV-induced corneal lesions in rabbits (fluorescein penetration into the cornea, corneal epithelial barrier function). It is filed as in vivo, rabbit (white rabbits). The conditions noted are these: from Table 1 and FIG. 1. The protocol: The inhibitory effect of the present compound on UV-induced corneal lesions in rabbits was evaluated. Test substance: L-Ascorbyl DL-α-tocopherylphosphate potassium (abbreviation: EPC-K). Method: White rabbits were used; 4 animals assigned to the present compound treatment group and 3 assigned to a control group (the nictitating membrane was excised beforehand).
For UV irradiation, Hoya-Schott's HLS200U (dominant wavelength 365 nm) equipped with a 200 W mercury-xenon lamp as the light source was used. Ushio Electric's Unimeter UIT-101 was used for the determination of luminous energy.
One eye of each rabbit was kept open with an eye speculum and set at a distance of 43 cm from the light source so that the irradiation energy would be 0.024 J/cm^2. […]
The degree of rabbit corneal lesion was evaluated by the following method^1). Using fluorescein as a tracer, the fluorescence intensity of the tracer dye penetrating into the cornea within a predetermined region was measured for a quantitative assessment of the barrier function of the corneal epithelium (The corneal epithelium has a barrier function^2) to restrict penetration of any substance into the deep layer of the cornea and when an erosion or other injury occurs in the corneal epithelium, this barrier function is compromised so that the penetration of the substance into the depth of the cornea is increased). […]

By LD50 is commonly meant the dose expected to kill half of the subjects tested. A lower LD50 goes with a more toxic substance.

Consider `Cc1c(C)c2c(c(C)c1OP(=O)(O)OC1=C(O)[C@@H]([C@@H](O)CO)OC1=O)CCC(C)(CCCC(C)CCCC(C)CCCC(C)C)O2` (mixture of isomers) [EPC-K, L-ascorbyl DL-α-tocopheryl phosphate potassium], for which the values for the LD50 with rats [1] and with rats [2] were no less than 5000 mg/kg and no less than 100 mg/kg, respectively. The “inhibition of UV-induced corneal lesion (result in words)” value in data set [3] is listed as “effectively inhibits UV-induced corneal lesion”.
